In US11084790B2, “Insoluble complex or solvate thereof, pharmaceutical composition and use thereof” (Fruithy Holdings Limited, priority 2017, dated 2021):
Values after ≈ are worked out from the molar mass of the structure shown.

Test: Test on the solubility in a simulated body fluid
Assay type: physicochemical
Details: for Compound concentration: Bupivacaine / Compound concentration: DBTA / Compound concentration: DTTA / Compound concentration: Ropivacaine / Compound concentration: naphthol phosphate / solubility / Compound concentration: Pamoic acid: 0.01 M PBS pH 7.4, 37° C.
Experimental: Test on the Solubility in a Simulated Body Fluid
The concentration of the drug dissolved in the PBS buffered solution was determined with an HPLC-a method.

Structure (SMILES) | Compound concentration: Bupivacaine (5 min) [µM] | Compound concentration: Bupivacaine (15 min) [µM] | Compound concentration: Bupivacaine (30 min) [µM] | Compound concentration: Bupivacaine (1 h) [µM] | Compound concentration: Bupivacaine (2 h) [µM] | Compound concentration: Bupivacaine (6 h) [µM] | Compound concentration: Bupivacaine (24 h) [µM] | Compound concentration: DTTA (5 min) [µM] | Compound concentration: DTTA (15 min) [µM] | Compound concentration: DTTA (30 min) [µM] | Compound concentration: DTTA (1 h) [µM] | Compound concentration: DTTA (2 h) [µM] | Compound concentration: DTTA (6 h) [µM] | Compound concentration: DTTA (24 h) [µM] | Compound concentration: Ropivacaine (5 min) [µM] | Compound concentration: Ropivacaine (15 min) [µM] | Compound concentration: Ropivacaine (30 min) [µM] | Compound concentration: Ropivacaine (1 h) [µM] | Compound concentration: Ropivacaine (2 h) [µM] | Compound concentration: Ropivacaine (6 h) [µM] | other results
CCCCN1CCCCC1C(=O)Nc1c(C)cccc1C (stereo not shown) [Bupivacaine free base, reference compound] |  |  |  |  |  |  |  |  |  |  |  |  |  |  |  |  |  |  |  |  | solubility at 24 h (phosphate buffered saline (simulated body fluid), 37 °C, aqueous buffer, thermodynamic from solid, simulated body fluid, 0.01 M PBS at pH 7.4, read-out: Saturated solubility): 1450 µM (≈ 418 µg/mL)
CCCCN1CCCCC1C(=O)Nc1c(C)cccc1C.O=C(OC(C(=O)O)C(OC(=O)c1ccccc1)C(=O)O)c1ccccc1 (stereo not shown) [Preparation Example 1, mono(bupivacaine) dibenzoyl tartarate] | 4884.6 | 6987.2 | 7755.2 | 8196 | 7911.7 | 7006.1 | 5767.9 |  |  |  |  |  |  |  |  |  |  |  |  |  | Compound concentration: DBTA (5 min): 4992 µM; Compound concentration: DBTA (15 min): 7107.7 µM; Compound concentration: DBTA (30 min): 7866.6 µM; Compound concentration: DBTA (1 h): 8284.6 µM; Compound concentration: DBTA (2 h): 8015.5 µM; Compound concentration: DBTA (6 h): 7590.5 µM; Compound concentration: DBTA (24 h): 7303.7 µM
CCCCN1CCCCC1C(=O)Nc1c(C)cccc1C.CCCCN1CCCCC1C(=O)Nc1c(C)cccc1C.O=C(OC(C(=O)O)C(OC(=O)c1ccccc1)C(=O)O)c1ccccc1 (stereo not shown) [Preparation Example 2, bis(bupivacaine) dibenzoyl tartarate] | 819 | 1593.7 | 2133.2 | 2848.7 | 3565.4 | 6577 | 6389.6 |  |  |  |  |  |  |  |  |  |  |  |  |  | Compound concentration: DBTA (5 min): 769.6 µM; Compound concentration: DBTA (15 min): 1550.4 µM; Compound concentration: DBTA (30 min): 2183.8 µM; Compound concentration: DBTA (1 h): 3035.9 µM; Compound concentration: DBTA (2 h): 3953.3 µM; Compound concentration: DBTA (6 h): 6336.3 µM; Compound concentration: DBTA (24 h): 6122.7 µM
CCCCN1CCCCC1C(=O)Nc1c(C)cccc1C.Cc1ccc(C(=O)OC(C(=O)O)C(OC(=O)c2ccc(C)cc2)C(=O)O)cc1 (stereo not shown) [Preparation Example 3, mono(bupivacaine) di-p-toluoyl tartarate] | 7947.6 | 7862.6 | 7662.2 | 7519 | 7719.3 | 7883.2 | 7917.8 | 7316.3 | 7244.6 | 7012.2 | 6900.6 | 7048.1 | 7211.7 | 7249 |  |  |  |  |  |  | 
CCCCN1CCCCC1C(=O)Nc1c(C)cccc1C.CCCCN1CCCCC1C(=O)Nc1c(C)cccc1C.Cc1ccc(C(=O)OC(C(=O)O)C(OC(=O)c2ccc(C)cc2)C(=O)O)cc1 (stereo not shown) [Preparation Example 4, bis(bupivacaine) di-p-toluoyl tartarate] | 11389.4 | 12009.1 | 11426.9 | 11256.7 | 11278.1 | 11851.8 | 11693.3 | 5161 | 5399.5 | 5135 | 5084.8 | 5068.3 | 5312 | 5219.7 |  |  |  |  |  |  | 
CCCN1CCCC[C@H]1C(=O)Nc1c(C)cccc1C.Cc1ccc(C(=O)OC(C(=O)O)C(OC(=O)c2ccc(C)cc2)C(=O)O)cc1 (stereo not shown) [Preparation Example 5, mono(ropivacaine) di-p-toluoyl tartarate] |  |  |  |  |  |  |  | 6676.8 | 6612.8 | 6704 | 6752.1 | 6988 | 6971.8 | 7073.8 | 7268.7 | 7215.5 | 7287.2 | 7343.7 | 7630.4 | 7604.1 | Compound concentration: Ropivacaine (24 h): 7648.9 µM
CCCN1CCCC[C@H]1C(=O)Nc1c(C)cccc1C.CCCN1CCCC[C@H]1C(=O)Nc1c(C)cccc1C.Cc1ccc(C(=O)OC(C(=O)O)C(OC(=O)c2ccc(C)cc2)C(=O)O)cc1 (stereo not shown) [Preparation Example 6, bis(ropivacaine) di-p-toluoyl tartarate] |  |  |  |  |  |  |  | 13380.8 | 15017.3 | 18586.4 | 19990.1 | 19679 | 19617.2 | 22843.9 | 26058.5 | 29888.8 | 38657.6 | 41983.6 | 41011.1 | 40777.8 | Compound concentration: Ropivacaine (24 h): 47445.3 µM
CCCCN1CCCCC1C(=O)Nc1c(C)cccc1C.O=P1(O)Oc2ccc3ccccc3c2-c2c(ccc3ccccc23)O1 [Preparation Example 7, bupivacaine binaphthol phosphate] | 263 | 271.4 | 310.5 | 280.7 | 314.8 | 317.7 | 268.4 |  |  |  |  |  |  |  |  |  |  |  |  |  | Compound concentration: naphthol phosphate (5 min): 293.5 µM; Compound concentration: naphthol phosphate (15 min): 275.6 µM; Compound concentration: naphthol phosphate (30 min): 264.3 µM; Compound concentration: naphthol phosphate (1 h): 263.3 µM; Compound concentration: naphthol phosphate (2 h): 278.9 µM; Compound concentration: naphthol phosphate (6 h): 288.4 µM; Compound concentration: naphthol phosphate (24 h): 264.6 µM; stability of the suspension (ratio between acid radical and basic group) (simulated body fluid): stable; solubility (simulated body fluid): about 0.3 mM
CC1(C)C2CCC1(CS(=O)(=O)O)C(=O)C2.CCCCN1CCCCC1C(=O)Nc1c(C)cccc1C (stereo not shown) [Preparation Example 8, bupivacaine camphorsulfonate] | 47678.3 | 57125.4 | 68314.9 | 68195.8 | 68902.6 | 71253.9 | 66020 |  |  |  |  |  |  |  |  |  |  |  |  |  | 
CCCN1CCCC[C@H]1C(=O)Nc1c(C)cccc1C.O=C(O)c1cc2ccccc2c(Cc2c(O)c(C(=O)O)cc3ccccc23)c1O [Preparation Example 9, mono(ropivacaine) pamoate] |  |  |  |  |  |  |  |  |  |  |  |  |  |  | 347.9 | 602.6 | 887 | 1285.6 | 1660.8 | 1944 | Compound concentration: Pamoic acid (5 min): 345.9 µM; Compound concentration: Pamoic acid (15 min): 601.5 µM; Compound concentration: Pamoic acid (30 min): 880.3 µM; Compound concentration: Pamoic acid (1 h): 1280.8 µM; Compound concentration: Pamoic acid (2 h): 1668.4 µM; Compound concentration: Pamoic acid (6 h): 1953.9 µM; Compound concentration: Pamoic acid (24 h): 2052.3 µM; Compound concentration: Ropivacaine (24 h): 1972 µM; stability of the suspension (ratio between acid radical and basic group) (simulated body fluid): stable; solubility (simulated body fluid): about 2.0 mM
